Results reported in ChEMBL document CHEMBL1201862, “PubChem BioAssay data set” (2004).
Active and inactive are the calls of the source.

Key:
[1] = blockade of melanocortin 4 receptor signaling – cell-based, plate reader, cherry pick, counter-screen for LGR2 antagonist project, dose response (AID 743444); format: functional;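 further: transfected HEK 293 cells stimulated with alpha-MSH peptide; potency of inhibitors of the alpha-MSH evoked signal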
[2] = target: T1, Oxysterols receptor LXR-beta (Homo sapiens, UniProt P55055); format: functional, cell-based;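 further: Cell-based luminescence dose-response assay of agonist activity at LXR, run as a confirmatory counterscreen to a daf-12 agonist screen; HEK293 cells with Gal4-LXR fusion and GAL4-driven luciferase reporter; agonist potency from rising luciferase signal of a Gal4-LXR reporter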
T1 sequence (P55055 whole entry): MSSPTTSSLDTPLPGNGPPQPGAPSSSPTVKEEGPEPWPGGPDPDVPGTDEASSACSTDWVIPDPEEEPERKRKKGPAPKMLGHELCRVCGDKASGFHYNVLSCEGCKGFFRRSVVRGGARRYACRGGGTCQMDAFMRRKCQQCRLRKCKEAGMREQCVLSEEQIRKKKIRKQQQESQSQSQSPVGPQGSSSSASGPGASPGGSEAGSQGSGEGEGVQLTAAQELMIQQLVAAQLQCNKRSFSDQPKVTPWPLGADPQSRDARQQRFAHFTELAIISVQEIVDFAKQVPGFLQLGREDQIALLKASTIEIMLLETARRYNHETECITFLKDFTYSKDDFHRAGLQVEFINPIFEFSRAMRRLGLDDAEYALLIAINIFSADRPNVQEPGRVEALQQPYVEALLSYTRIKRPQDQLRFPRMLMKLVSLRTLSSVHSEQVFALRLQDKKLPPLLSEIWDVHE

[3] = target: Glucose-6-phosphate 1-dehydrogenase (Homo sapiens, UniProt P11413); experiment: inhibition of Homo sapiens G6PD, dose series – biochemical, fluorescence, selectivity assay for P. falciparum G6PD inhibitor project, dose response (AID 504792); format: functional
Beta-galactosidase [4] = target: T2, Beta-galactosidase (Escherichia coli, UniProt Q8VNN2); experiment: detection-enzyme interference by beta-gal modulators – biochemical, E. coli enzyme, set 3, artefact control for CCR6 antagonist project, dose response (AID 504712); format: functional
T2 sequence (Q8VNN2 whole entry): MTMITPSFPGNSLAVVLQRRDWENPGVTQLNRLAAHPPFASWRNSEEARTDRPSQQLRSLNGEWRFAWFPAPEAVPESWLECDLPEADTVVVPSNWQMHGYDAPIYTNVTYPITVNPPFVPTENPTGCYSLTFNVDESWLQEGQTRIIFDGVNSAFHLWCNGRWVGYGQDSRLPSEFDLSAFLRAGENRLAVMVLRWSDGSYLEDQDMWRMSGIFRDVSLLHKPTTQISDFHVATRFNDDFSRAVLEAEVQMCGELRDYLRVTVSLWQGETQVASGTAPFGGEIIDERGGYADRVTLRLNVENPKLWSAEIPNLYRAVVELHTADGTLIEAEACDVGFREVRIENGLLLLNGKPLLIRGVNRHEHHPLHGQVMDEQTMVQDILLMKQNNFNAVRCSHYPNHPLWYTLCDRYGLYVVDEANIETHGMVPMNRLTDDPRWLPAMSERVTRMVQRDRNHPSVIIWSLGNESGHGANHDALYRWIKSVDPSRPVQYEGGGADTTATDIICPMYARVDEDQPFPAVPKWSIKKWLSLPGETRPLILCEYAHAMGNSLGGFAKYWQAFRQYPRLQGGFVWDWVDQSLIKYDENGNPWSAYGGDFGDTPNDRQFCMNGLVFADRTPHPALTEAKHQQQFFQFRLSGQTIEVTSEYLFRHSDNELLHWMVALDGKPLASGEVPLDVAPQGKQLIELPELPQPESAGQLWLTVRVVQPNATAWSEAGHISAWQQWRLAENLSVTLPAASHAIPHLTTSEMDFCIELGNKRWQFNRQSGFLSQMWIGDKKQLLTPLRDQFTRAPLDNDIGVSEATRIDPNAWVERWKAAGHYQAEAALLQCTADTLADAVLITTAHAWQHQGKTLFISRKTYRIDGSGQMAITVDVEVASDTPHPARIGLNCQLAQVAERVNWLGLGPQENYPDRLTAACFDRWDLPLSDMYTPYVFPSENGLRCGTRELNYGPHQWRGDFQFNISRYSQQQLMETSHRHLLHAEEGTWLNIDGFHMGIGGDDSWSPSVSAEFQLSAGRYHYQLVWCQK

[5] = target: Tyrosine-protein kinase JAK2 (Homo sapiens, UniProt O60674); format: functional;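 further: JAK2 tested as one member of a kinase panel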
[6] = target: ALK tyrosine kinase receptor (Homo sapiens, UniProt Q9UM73); format: functional;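 further: ALK tested as one member of a kinase panel screen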
[7] = target: Proto-oncogene tyrosine-protein kinase receptor Ret (Homo sapiens, UniProt P07949); format: functional;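 further: measured within a kinome-wide profiling panel, RET as the panel member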
[8] = target: Serine/threonine-protein kinase D3 (Homo sapiens, UniProt O94806); format: functional;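 further: determined within a kinase panel screen, with PRKCN as the panel member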
[9] = target: Cyclin-dependent kinase 2 (Homo sapiens, UniProt P24941); format: functional;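 further: CDK2 measured as one member of a broad kinome profiling panel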
SRSF protein kinase 1 = SRSF protein kinase 1 (Homo sapiens, UniProt Q96SB4); format: functional;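 further: measured as one member of a kinome-wide kinase profiling panel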
[10] = target: Mitogen-activated protein kinase 8 (Homo sapiens, UniProt P45983); format: functional;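 further: value comes from one member of a kinome-wide kinase profiling panel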
Mitogen-activated protein kinase 8, sequence (P45983 whole entry, canonical isoform): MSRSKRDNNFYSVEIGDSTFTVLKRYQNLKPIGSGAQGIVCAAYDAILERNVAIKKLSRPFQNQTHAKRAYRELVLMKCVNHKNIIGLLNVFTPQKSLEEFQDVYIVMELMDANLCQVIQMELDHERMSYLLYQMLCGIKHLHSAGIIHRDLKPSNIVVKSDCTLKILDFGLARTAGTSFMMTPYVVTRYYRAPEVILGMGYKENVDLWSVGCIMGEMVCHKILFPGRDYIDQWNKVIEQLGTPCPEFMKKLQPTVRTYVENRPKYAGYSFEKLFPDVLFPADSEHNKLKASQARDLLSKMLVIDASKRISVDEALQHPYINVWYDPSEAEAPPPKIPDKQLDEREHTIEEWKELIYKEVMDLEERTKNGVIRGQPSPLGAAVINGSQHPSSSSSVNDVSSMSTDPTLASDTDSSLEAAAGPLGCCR

[11] = target: Casein kinase I isoform alpha (Homo sapiens, UniProt P48729); format: functional
[12] = target: Casein kinase I isoform gamma-1 (Homo sapiens, UniProt Q9HCP0); format: functional;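 further: measured as the CSNK1G1 member of a kinome profiling panel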
Casein kinase I isoform gamma-1, sequence (Q9HCP0 whole entry, the tested form may be a part, canonical isoform): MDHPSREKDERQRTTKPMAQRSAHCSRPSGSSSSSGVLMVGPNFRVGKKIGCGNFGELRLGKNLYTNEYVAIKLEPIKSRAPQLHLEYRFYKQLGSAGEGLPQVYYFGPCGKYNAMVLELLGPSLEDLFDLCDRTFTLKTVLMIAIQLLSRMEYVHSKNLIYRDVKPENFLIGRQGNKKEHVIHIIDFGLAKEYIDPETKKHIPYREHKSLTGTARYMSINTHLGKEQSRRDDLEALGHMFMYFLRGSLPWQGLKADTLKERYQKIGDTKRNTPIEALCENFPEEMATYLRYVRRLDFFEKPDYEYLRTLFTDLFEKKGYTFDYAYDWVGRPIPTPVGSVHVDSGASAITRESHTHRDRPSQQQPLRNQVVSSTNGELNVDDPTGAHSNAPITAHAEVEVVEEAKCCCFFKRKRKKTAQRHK

LIM domain kinase 1 = LIM domain kinase 1 (Homo sapiens, UniProt P53667); experiment: Navigating the Kinome. Panel member name: LIMK1; format: functional
[13] = target: Tyrosine-protein kinase Blk (Homo sapiens, UniProt P51451); format: functional;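 further: obtained as one member of a kinome-wide kinase assay panel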
[14] = target: Non-receptor tyrosine-protein kinase TYK2 (Homo sapiens, UniProt P29597); format: functional
[15] = target: Glycogen synthase kinase-3 alpha (Homo sapiens, UniProt P49840); format: functional;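 further: GSK3A result taken from a broad kinome-wide kinase panel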
Glycogen synthase kinase-3 alpha, sequence (P49840 whole entry): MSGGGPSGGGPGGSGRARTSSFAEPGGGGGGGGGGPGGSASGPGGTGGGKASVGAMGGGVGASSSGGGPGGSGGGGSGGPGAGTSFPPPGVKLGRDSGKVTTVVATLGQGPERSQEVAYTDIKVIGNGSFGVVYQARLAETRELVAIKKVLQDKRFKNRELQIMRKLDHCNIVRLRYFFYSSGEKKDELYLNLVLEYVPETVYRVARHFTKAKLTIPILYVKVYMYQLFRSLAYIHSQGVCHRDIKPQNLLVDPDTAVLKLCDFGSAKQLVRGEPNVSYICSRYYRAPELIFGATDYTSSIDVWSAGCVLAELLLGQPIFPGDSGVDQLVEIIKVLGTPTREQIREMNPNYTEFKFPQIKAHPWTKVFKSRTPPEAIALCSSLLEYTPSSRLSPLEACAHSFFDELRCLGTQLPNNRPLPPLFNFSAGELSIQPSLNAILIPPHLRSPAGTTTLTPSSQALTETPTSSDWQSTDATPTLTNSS

[16] = target: Hepatocyte growth factor receptor (Homo sapiens, UniProt P08581); format: functional;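 further: kinase panel profiling across the kinome, with MET as the panel member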
Hepatocyte growth factor receptor, sequence (P08581 whole entry): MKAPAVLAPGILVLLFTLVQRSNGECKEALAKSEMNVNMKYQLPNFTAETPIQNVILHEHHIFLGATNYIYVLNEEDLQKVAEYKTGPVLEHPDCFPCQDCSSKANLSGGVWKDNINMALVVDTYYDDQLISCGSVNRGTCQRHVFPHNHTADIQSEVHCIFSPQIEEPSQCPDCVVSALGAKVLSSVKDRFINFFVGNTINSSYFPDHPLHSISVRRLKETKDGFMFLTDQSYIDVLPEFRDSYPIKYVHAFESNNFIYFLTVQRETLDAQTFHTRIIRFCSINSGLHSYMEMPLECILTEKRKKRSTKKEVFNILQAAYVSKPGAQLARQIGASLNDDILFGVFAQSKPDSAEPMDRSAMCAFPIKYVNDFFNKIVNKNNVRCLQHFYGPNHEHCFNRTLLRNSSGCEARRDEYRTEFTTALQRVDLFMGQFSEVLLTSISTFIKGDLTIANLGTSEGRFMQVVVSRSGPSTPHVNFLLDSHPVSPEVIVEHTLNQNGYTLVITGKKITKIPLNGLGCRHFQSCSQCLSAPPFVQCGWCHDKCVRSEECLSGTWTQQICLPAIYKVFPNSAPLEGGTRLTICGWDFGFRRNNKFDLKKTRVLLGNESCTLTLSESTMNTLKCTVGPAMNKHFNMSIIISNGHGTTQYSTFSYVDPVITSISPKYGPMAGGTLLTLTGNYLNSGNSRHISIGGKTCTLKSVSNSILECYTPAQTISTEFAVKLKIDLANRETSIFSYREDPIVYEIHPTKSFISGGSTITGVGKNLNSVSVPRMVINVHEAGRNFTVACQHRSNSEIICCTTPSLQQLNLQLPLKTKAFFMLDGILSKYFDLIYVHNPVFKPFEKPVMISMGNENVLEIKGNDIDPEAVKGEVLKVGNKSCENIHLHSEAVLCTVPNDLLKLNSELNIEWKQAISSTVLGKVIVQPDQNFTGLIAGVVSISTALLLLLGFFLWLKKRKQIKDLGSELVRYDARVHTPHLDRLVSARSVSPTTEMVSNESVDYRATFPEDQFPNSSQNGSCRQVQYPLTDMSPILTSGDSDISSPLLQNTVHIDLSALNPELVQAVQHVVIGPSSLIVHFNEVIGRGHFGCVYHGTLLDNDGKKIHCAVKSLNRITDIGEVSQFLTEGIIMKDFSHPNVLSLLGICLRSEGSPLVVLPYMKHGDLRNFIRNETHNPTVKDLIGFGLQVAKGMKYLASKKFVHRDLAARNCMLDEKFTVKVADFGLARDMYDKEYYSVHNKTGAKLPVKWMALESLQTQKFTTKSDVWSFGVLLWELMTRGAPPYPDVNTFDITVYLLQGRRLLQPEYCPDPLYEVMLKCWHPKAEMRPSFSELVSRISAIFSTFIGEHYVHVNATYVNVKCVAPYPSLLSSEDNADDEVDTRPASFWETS

[17] = target: Receptor-type tyrosine-protein kinase FLT3 (Homo sapiens, UniProt P36888); format: functional;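 further: FLT3 was tested as one member of a kinome-wide kinase panel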
[18] = target: Receptor tyrosine-protein kinase erbB-2 (Homo sapiens, UniProt P04626); experiment: Navigating the Kinome. Panel member name: ERBB2; format: functional
[19] = target: Serine/threonine-protein kinase Chk1 (Homo sapiens, UniProt O14757); format: functional;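 further: measured as one member of a kinome-wide kinase profiling panel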
[20] = target: MAP kinase-interacting serine/threonine-protein kinase 2 (Homo sapiens, UniProt Q9HBH9); format: functional
[21] = target: Vascular endothelial growth factor receptor 2 (Homo sapiens, UniProt P35968); format: functional
Focal adhesion kinase 1 = Focal adhesion kinase 1 (Homo sapiens, UniProt Q05397); format: functional;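 further: measured as one member of a kinome panel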
Aurora kinase B = Aurora kinase B (Homo sapiens, UniProt Q96GD4); format: functional
Aurora kinase B, sequence (Q96GD4 whole entry): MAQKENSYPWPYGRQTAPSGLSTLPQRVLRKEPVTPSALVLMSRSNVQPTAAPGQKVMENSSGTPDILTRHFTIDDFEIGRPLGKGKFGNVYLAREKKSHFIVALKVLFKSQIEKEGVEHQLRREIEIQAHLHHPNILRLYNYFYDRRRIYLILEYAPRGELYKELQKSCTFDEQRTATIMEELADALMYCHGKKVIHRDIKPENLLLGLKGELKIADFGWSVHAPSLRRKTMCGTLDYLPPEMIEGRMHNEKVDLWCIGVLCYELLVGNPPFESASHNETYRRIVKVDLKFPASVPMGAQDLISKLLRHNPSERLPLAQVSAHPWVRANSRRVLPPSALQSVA

[22] = target: Calcium/calmodulin-dependent protein kinase type 1 (Homo sapiens, UniProt Q14012); format: functional
[23] = target: Cyclin-dependent kinase 1 (Homo sapiens, UniProt P06493); format: functional;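 further: Kinome-wide panel profiling, with the target listed as panel member CDC2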
[24] = target: STE20-like serine/threonine-protein kinase (Homo sapiens, UniProt Q9H2G2); format: functional
[25] = target: Fibroblast growth factor receptor 3 (Homo sapiens, UniProt P22607); format: functional
Fibroblast growth factor receptor 3, sequence (P22607 whole entry): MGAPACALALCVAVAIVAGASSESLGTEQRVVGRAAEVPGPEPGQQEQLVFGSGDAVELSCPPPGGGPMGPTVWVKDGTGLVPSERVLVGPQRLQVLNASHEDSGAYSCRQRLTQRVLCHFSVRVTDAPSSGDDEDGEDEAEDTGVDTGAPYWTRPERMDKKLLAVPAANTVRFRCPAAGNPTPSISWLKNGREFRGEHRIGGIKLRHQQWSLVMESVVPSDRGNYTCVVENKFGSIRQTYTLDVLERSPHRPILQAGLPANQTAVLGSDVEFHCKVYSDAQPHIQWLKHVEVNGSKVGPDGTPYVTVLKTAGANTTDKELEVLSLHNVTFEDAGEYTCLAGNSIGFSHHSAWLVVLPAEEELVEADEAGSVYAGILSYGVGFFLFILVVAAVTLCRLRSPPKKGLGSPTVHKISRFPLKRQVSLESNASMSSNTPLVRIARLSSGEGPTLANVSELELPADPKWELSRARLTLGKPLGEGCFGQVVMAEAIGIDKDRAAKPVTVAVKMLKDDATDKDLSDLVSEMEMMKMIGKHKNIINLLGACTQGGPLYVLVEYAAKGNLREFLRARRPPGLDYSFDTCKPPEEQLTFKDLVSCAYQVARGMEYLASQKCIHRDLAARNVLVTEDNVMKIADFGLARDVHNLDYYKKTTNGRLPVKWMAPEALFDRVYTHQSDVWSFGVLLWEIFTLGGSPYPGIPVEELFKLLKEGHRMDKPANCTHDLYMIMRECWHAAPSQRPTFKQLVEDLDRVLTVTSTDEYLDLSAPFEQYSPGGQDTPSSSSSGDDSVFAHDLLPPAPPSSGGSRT

HeLa = experiment: Cytotoxicity counterscreen assay for transcriptional activators of heat shock protein 70 (Hsp70). [Related pubchem assays: 1203, 1252 ]; format: functional; conditions: Homo sapiens;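 further: cells exposed to compound for 16 hours before readout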
Beta-galactosidase [26] = target: T2, Beta-galactosidase; experiment: PubChem AID 485352; format: functional
[27] = NIH3T3 cell viability loss – ATP luminescence, mouse fibroblasts, counter-screen, dose response (AID 2010); format: functional, cell-based;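 further: cells exposed to compound for about 90 hours before reading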
BJ = experiment: BJ-TERT-LT-ST fibroblast viability loss – cell-based, RAS-independent, luminescence, dose response (AID 1935); format: functional; conditions: Homo sapiens;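 further: BJ fibroblasts immortalized with TERT plus LT and ST oncogenes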
[28] = DRD fibroblast viability loss – cell-based, non-viral oncogenic, luminescence, dose response (AID 1934); format: functional; conditions: Homo sapiens
[29] = target: T3, Mannose-6-phosphate isomerase (Homo sapiens, UniProt P34949); experiment: MPI inhibition at elevated mannose 6-phosphate – biochemical, fluorescence intensity, high mannose 6-phosphate, primary screen (AID 1220)
T3 sequence (P34949 whole entry): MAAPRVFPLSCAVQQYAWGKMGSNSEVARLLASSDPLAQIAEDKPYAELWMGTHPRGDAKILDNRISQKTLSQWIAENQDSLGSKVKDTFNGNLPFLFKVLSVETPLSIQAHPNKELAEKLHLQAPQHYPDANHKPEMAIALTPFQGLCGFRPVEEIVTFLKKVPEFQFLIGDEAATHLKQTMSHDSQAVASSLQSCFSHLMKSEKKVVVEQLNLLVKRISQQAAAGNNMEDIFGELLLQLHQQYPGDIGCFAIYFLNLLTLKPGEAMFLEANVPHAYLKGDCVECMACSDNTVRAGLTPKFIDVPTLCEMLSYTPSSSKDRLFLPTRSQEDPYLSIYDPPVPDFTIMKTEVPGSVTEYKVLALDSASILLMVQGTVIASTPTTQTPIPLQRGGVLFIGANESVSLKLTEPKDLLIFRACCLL

Cc1cnc(NC(=O)c2sc3ccccc3c2Cl)s1
active: AC50 [1] 3.25 µM
inactive: EC50 [2] > 67.5 µM

CN(C)c1ncc(C2=C(Cl)C(=O)C(N3CCCC3)=C(Cl)C2=O)s1
inactive: IC50 [3] 30.7 µM | IC50 (Beta-galactosidase [4]) > 66.6 µM

O=C1NC(=S)SC1=C1C(=O)Nc2ccc(Br)cc21
active: Ki (SRSF protein kinase 1) 6.31 µM | Ki [10] 1 µM | Ki (LIM domain kinase 1) 3.98 µM | Ki [15] 0.316 µM | Ki [17] 0.158 µM | Ki [20] 0.794 µM | Ki (Aurora kinase B) 2.51 µM | Ki [24] 1.26 µM
inactive: Ki [5] > 1.58 µM | Ki [6] > 1.26 µM | Ki [7] > 1.26 µM | Ki [8] > 10 µM | Ki [9] > 7.94 µM | Ki [11] > 6.31 µM | Ki [12] > 6.31 µM | Ki [13] > 1.58 µM | Ki [14] > 2 µM | Ki [16] > 3.16 µM | Ki [18] > 1.58 µM | Ki [19] > 7.94 µM | Ki [21] > 7.94 µM | Ki (Focal adhesion kinase 1) > 1.58 µM | Ki [22] > 3.16 µM | Ki [23] > 7.94 µM | Ki [25] > 2 µM

Cc1ccc(Nc2cc(C)nn2-c2nc(C)cc(O)n2)cc1
active: CC50 (HeLa) 7.59 µM | EC50 [27] 0.497 µM | EC50 [28] 22.4 µM | EC50 (cells) 0.074 µM
inconclusive: EC50 (BJ) 2.94 µM
inactive: EC50 (Beta-galactosidase [26]) > 40 µM

Cc1ccc(C(=O)c2c(C)oc3c2C(=O)C(=O)c2ccccc2-3)cc1
> 50 µM (not active): IC50 [29]
